Laboratory results from BindingDB's records for doi:10.7270/Q24748BK (Burnham Center For Chemical Genomics, 2010).

What follows are compounds tested against T1, Tyrosine-protein phosphatase non-receptor type 22 (Homo sapiens, UniProt Q9Y2R2) (assay: concentration-dependent PTPN22 LYP inhibition – biochemical, pCAP substrate, fluorescence intensity, dose response (AID 435027)).
T1 sequence (Q9Y2R2 whole entry): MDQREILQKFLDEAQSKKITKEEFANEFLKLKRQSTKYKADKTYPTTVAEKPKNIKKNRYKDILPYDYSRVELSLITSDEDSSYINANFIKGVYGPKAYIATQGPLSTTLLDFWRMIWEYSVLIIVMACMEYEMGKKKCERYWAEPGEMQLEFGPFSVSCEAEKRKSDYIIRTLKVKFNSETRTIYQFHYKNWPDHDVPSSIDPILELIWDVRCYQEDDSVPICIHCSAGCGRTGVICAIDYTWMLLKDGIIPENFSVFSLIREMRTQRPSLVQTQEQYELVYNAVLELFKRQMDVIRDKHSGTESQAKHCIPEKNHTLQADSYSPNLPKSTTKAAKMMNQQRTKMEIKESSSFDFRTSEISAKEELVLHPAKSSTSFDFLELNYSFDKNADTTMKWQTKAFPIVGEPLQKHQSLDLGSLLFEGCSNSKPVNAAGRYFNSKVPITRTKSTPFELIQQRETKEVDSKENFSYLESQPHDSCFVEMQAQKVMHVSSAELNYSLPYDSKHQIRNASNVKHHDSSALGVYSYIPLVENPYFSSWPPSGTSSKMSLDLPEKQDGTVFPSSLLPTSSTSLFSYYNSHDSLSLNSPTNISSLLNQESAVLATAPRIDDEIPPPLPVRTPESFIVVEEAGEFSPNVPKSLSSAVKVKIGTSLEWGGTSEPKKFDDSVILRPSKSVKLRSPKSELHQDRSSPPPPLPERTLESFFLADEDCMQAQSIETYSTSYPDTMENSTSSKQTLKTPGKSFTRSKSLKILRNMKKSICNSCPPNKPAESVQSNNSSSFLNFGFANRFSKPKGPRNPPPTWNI
Compound `N=C(NN=Cc1ccc2c(c1)OCO2)Sc1cc(O)n(-c2ccc(C(=O)O)cc2)c1O` [4-(3-{[[(2E)-2-(1,3-benzodioxol-5-ylmethylene)hydrazino](imino)methyl]thio}-2,5-dioxopyrrolidin-1-yl)benzoic acid] has an IC50 of 7.65 µM.
With `Cc1ccc(NN=C2C(=O)N(CN3CCOCC3)c3ccccc32)cc1` [(3Z)-3-[(4-methylphenyl)hydrazinylidene]-1-(4-morpholinylmethyl)-2-indolone] the IC50 was over 79.4 µM.
Work on `O=C1C([N+](=O)[O-])=CC(Br)=CC1/C=N/n1cnnc1` (stereo not given) [MLS000714804] yielded an IC50 of over 79.4 µM.
For `COC1=CC=CC(/C=N/NC(=O)c2cc3cc([N+](=O)[O-])ccc3s2)C1=O` (stereo not given) [SMR000237814], the IC50 was 15.7 µM.
In the case of `CCOC(=O)NC(=O)C(C=Nc1ccc(C)cc1)C(=O)NC(=O)OCC` [ethyl 2-{[(ethoxycarbonyl)amino]carbonyl}-3-(4-toluidino)acryloylcarbamate], the IC50 is reported as over 79.4 µM.
